{"source": "patent EP1375483A1", "about": "“6-CHLORO-3-PYRIDYLMETHYLPROPYLAMINE DERIVATIVES, PREPARATION PROCESS THEREOF AND BACTERICIDES” (KUREHA KAGAKU KOGYO KABUSHIKI KAISHA, priority 2001, dated 2001)", "key": {"Septoria tritici": {"test_system": "Septoria tritici", "assay": "Antifungal activity test against various pathogenic fungi, hypha extension on PDA plates (Test Example 3)", "format": "cell-based", "settings": "Zymoseptoria tritici, read-out: Growth Inhibition S.t (100)"}, "Pyrenophora graminea": {"test_system": "Pyrenophora graminea", "assay": "Antifungal activity test against various pathogenic fungi, hypha extension on PDA plates (Test Example 3)", "format": "cell-based", "settings": "read-out: Growth Inhibition P.g (12.5)"}, "Microdochium nivale": {"test_system": "Microdochium nivale", "assay": "Antifungal activity test against various pathogenic fungi, hypha extension on PDA plates (Test Example 3)", "format": "cell-based", "settings": "read-out: Growth Inhibition M.n (3.2)"}, "Leptosphaeria nodorum": {"test_system": "Leptosphaeria nodorum", "assay": "Antifungal activity test against various pathogenic fungi, hypha extension on PDA plates (Test Example 3)", "format": "cell-based", "settings": "Parastagonospora nodorum, read-out: Growth Inhibition L.n (0.8)"}, "Rhynchosporium secalis": {"test_system": "Rhynchosporium secalis", "assay": "Antifungal activity test against various pathogenic fungi, hypha extension on PDA plates (Test Example 3)", "format": "cell-based", "settings": "read-out: Growth Inhibition R.s (100)"}, "cucumber powdery mildew": {"test_system": "cucumber powdery mildew", "assay": "Test of control effect on cucumber powdery mildew (Test Example 2)", "format": "in vivo", "settings": "wettable powder 100 mg/l, 100 liters/10 a, sprinkled on cucumbers (Sagamihanpakufushinari) before inoculation, examined 9th to 14th day after inoculation; for pest or weed control at 100 µg/mL: Cucumis sativus", "procedure": "The wettable powders formulated by using each of the compounds I-1 to 27 according to the present invention and the comparative compounds (a) to (d), (m-1) and (m-3) were each diluted and suspended with water to a predetermined concentration (100 mg/l), the suspension was sprinkled over the first to the second leaf period cucumbers (variety: \"[…]\") cultivated by using a square plastic pot (size: 6. 4 cm x 6. 4 cm) in a rate of 100 liters/10 a (ares). After the sprinkled leaves were air-dried, the spores were inoculated over the leaves by sprinkling the same with a brush from an infected leaf, a disease was contracted in a glass house (temperature: 20 to 24°C, relative humidity: 20 to 70 RH). On the 9th to 14th day after the inoculation, the infection degree was examined according to the following scale and the control value of each compound was calculated by the following calculation equation 2: [table] (Equation 2) Control value = (1 - infection degree of treated zone/infection degree of untreated zone) x 100 (%) [formula] The control values of each compound are shown in Table 9."}, "wheat powdery mildew [1]": {"test_system": "wheat powdery mildew", "assay": "Test of control effect on wheat powdery mildew (Test Example 1)", "format": "in vivo", "settings": "wettable powder 125 mg/l, 100 liters/10 a, sprinkled on wheat seedlings (Nourin 64) before inoculation, examined 9th to 14th day after inoculation; for pest or weed control at 125 µg/mL: Triticum aestivum", "procedure": "Wettable powders were prepared from compounds of the present invention I-1 to I-27 and comparative compounds (a) to (d) , (m-1) and (m-3). The obtained wettable powder was diluted and suspended with water to provide the predetermined concentration (125 mg/l), and was sprinkled onto seedlings of wheat (variety: \"Nourin 64\") at the first to the second leaf period which were cultivated using square plastic pots (size: 6.4 cm x 6.4 cm) in a rate of 100 liters/10 a (ares). After drying the sprinkled leaves with air, a suspension of wheat powdery mildew spores taken from infected leaves was inoculated by spraying onto the sprinkled leaves. They were supervised in a green house (temperature: 20 to 24°C, relative humidity: 20 to 70 RH). On the 9th to 14th day after the inoculation, the infection degree was examined according to the following scale and the control value of each compound was calculated by the following calculation equation 1. [table] (Equation 1) Control value = (1 - infection degree of treated zone/infection degree of untreated zone) x 100 (%) [formula] The control values of each compound are shown in Table 8."}, "wheat powdery mildew [2]": {"test_system": "wheat powdery mildew", "assay": "Permeable mobility fungicidal effect test in leaf section of wheat powdery mildew (Test Example 4)", "format": "in vivo", "procedure": "In the test example 4, permeable mobility fungicidal effect test was performedon the leaf section of wheat powdery mildew with regard to the compounds I-1 to 27 according to the present invention and the comparative compounds (a) to (d), and (m-1) to (m-3) with the method described later. The compound in the form of a wettable powder obtained by Formulation 2 or the like was diluted and suspended with water to a predetermined concentration (200mg/l), and 0.5 µl of the suspension was applied to a 2 to 3 cm leaf portion from the root of the three leaves of the 4th to 4.5th leaf period wheat (variety: Abukumawase) cultured by using a square plastic pot (size: 6.4 cm x 6.4 cm). After these wheat leaves were subject to still standing in a glass house (temperature: 20 to 24C, relative humidity: 20 to 70 RH) for one day, the spores of wheat powdery mildew were inoculated over the leaves by sprinkling the same with a brush from an infected leaf, a disease was contracted in the same glass house. The length of a non-contracted area generated from the applied portion to the direction of the leaf top was measured, and a relative mobility to the compound (m-2) was calculated with the following calculation […] by using the comparative compound (m-2) as a standard compound. (Equation 4) Relative mobility = (Length of non-contracted area in each chemical section (cm)/Length of non-contracted area of compound (m-2) (cm)) [formula]"}, "[3]": {"test_system": "Pseudocercosporella herpotrichoides", "assay": "Antifungal activity test against various pathogenic fungi, hypha extension on PDA plates (Test Example 3)", "format": "cell-based", "settings": "Oculimacula yallundae, read-out: Growth Inhibition P.h (25)"}, "Venturia inaequalis": {"test_system": "Venturia inaequalis", "assay": "Antifungal activity test against various pathogenic fungi, hypha extension on PDA plates (Test Example 3)", "format": "cell-based", "settings": "read-out: Growth Inhibition V.i (3.2)"}, "Pyricularia oryzae": {"test_system": "Pyricularia oryzae", "assay": "microbe, parasite or virus in culture", "format": "cell-based", "settings": "read-out: Growth Inhibition P.o (12.5)"}, "Botrytis cinerea": {"test_system": "Botrytis cinerea", "assay": "Antifungal activity test against various pathogenic fungi, hypha extension on PDA plates (Test Example 3)", "format": "cell-based", "settings": "read-out: Growth Inhibition B.c (1.6)"}, "[4]": {"settings": "Septoria tritici, 100 ppm in PDA culture medium, cultured 1 to 7 days"}, "[5]": {"settings": "12.5 ppm in PDA culture medium, cultured 1 to 7 days"}, "[6]": {"settings": "3.2 ppm in PDA culture medium, cultured 1 to 7 days"}, "[7]": {"settings": "Leptosphaeria nodorum, 0.8 ppm in PDA culture medium, cultured 1 to 7 days"}, "[8]": {"settings": "100 ppm in PDA culture medium, cultured 1 to 7 days"}, "[9]": {"settings": "length of non-contracted area relative to compound (m-2), 0.5 µl of 200 mg/l suspension applied to wheat leaf (Abukumawase), inoculated after one day"}, "[10]": {"settings": "Pseudocercosporella herpotrichoides, 25 ppm in PDA culture medium, cultured 1 to 7 days"}, "[11]": {"settings": "1.6 ppm in PDA culture medium, cultured 1 to 7 days"}}, "note": "Read-outs that look alike come from different tables or passages of the source.", "data": [{"smiles": "CC(Cc1ccc2c(c1)OC(F)(F)O2)CN(C)Cc1ccc(Cl)nc1", "note": "(stereo not drawn) [Compound I-24]", "values": [{"measurement": "inhibition at 100 ppm", "setting": "Septoria tritici", "result": "70 to 90", "unit": "%"}, {"measurement": "inhibition at 12.5 ppm", "setting": "Pyrenophora graminea", "result": "> 90", "unit": "%"}, {"measurement": "inhibition at 3.2 ppm", "setting": "Microdochium nivale", "result": "70 to 90", "unit": "%"}, {"measurement": "inhibition at 0.8 ppm", "setting": "Leptosphaeria nodorum", "result": "> 90", "unit": "%"}, {"measurement": "inhibition at 100 ppm", "setting": "Rhynchosporium secalis", "result": "> 90", "unit": "%"}, {"measurement": "Control Value", "setting": "cucumber powdery mildew", "result": 100, "unit": "%"}, {"measurement": "Control Value", "setting": "wheat powdery mildew [1]", "result": 100, "unit": "%"}, {"measurement": "Relative Mobility", "setting": "wheat powdery mildew [2]; 24 h, 200 ug/mL", "result": 6}, {"measurement": "inhibition at 25 ppm", "setting": "[3]", "result": "> 90", "unit": "%"}, {"measurement": "inhibition at 3.2 ppm", "setting": "Venturia inaequalis", "result": "70 to 90", "unit": "%"}, {"measurement": "inhibition at 12.5 ppm", "setting": "Pyricularia oryzae", "result": "70 to 90", "unit": "%"}, {"measurement": "inhibition at 1.6 ppm", "setting": "Botrytis cinerea", "result": "70 to 90", "unit": "%"}]}, {"smiles": "CC(Cc1ccc(C(F)(F)F)c(F)c1F)CN(C)Cc1ccc(Cl)nc1", "note": "(stereo not drawn) [Compound I-10]", "values": [{"measurement": "inhibition at 100 ppm", "setting": "Septoria tritici", "result": "70 to 90", "unit": "%"}, {"measurement": "inhibition at 12.5 ppm", "setting": "Pyrenophora graminea", "result": "70 to 90", "unit": "%"}, {"measurement": "inhibition at 3.2 ppm", "setting": "Microdochium nivale", "result": "70 to 90", "unit": "%"}, {"measurement": "inhibition at 0.8 ppm", "setting": "Leptosphaeria nodorum", "result": "70 to 90", "unit": "%"}, {"measurement": "inhibition at 100 ppm", "setting": "Rhynchosporium secalis", "result": "70 to 90", "unit": "%"}, {"measurement": "Control Value", "setting": "cucumber powdery mildew", "result": 100, "unit": "%"}, {"measurement": "Control Value", "setting": "wheat powdery mildew [1]", "result": 100, "unit": "%"}, {"measurement": "Relative Mobility", "setting": "wheat powdery mildew [2]; 24 h, 200 ug/mL", "result": 3}, {"measurement": "inhibition at 25 ppm", "setting": "[3]", "result": "> 90", "unit": "%"}, {"measurement": "inhibition at 3.2 ppm", "setting": "Venturia inaequalis", "result": "70 to 90", "unit": "%"}, {"measurement": "inhibition at 12.5 ppm", "setting": "Pyricularia oryzae", "result": "70 to 90", "unit": "%"}, {"measurement": "inhibition at 1.6 ppm", "setting": "Botrytis cinerea", "result": "> 90", "unit": "%"}]}, {"smiles": "CC(Cc1ccc(OC(F)(F)F)c(F)c1)CN(C)Cc1ccc(Cl)nc1", "note": "(stereo not drawn) [Compound I-17, 6-chloro-N-[3-(3-fluoro-4-trifluoromethoxyphenyl)-2-methylpropyl]-N-methyl-3-pyridylmethylamine]", "values": [{"measurement": "inhibition at 100 ppm", "setting": "Septoria tritici; [4]", "result": "70 to 90", "unit": "%"}, {"measurement": "inhibition at 12.5 ppm", "setting": "Pyrenophora graminea; [5]", "result": "70 to 90", "unit": "%"}, {"measurement": "inhibition at 3.2 ppm", "setting": "Microdochium nivale; [6]", "result": "> 90", "unit": "%"}, {"measurement": "inhibition at 0.8 ppm", "setting": "Leptosphaeria nodorum; [7]", "result": "> 90", "unit": "%"}, {"measurement": "inhibition at 100 ppm", "setting": "Rhynchosporium secalis; [8]", "result": "> 90", "unit": "%"}, {"measurement": "pest or weed control at 100 µg/mL", "setting": "cucumber powdery mildew", "result": 100, "unit": "%"}, {"measurement": "pest or weed control at 125 µg/mL", "setting": "wheat powdery mildew [1]", "result": 100, "unit": "%"}, {"measurement": "Relative Mobility", "setting": "wheat powdery mildew [2]; [9]", "result": 10}, {"measurement": "inhibition at 25 ppm", "setting": "[3]; [10]", "result": "> 90", "unit": "%"}, {"measurement": "inhibition at 3.2 ppm", "setting": "Venturia inaequalis; [6]", "result": "70 to 90", "unit": "%"}, {"measurement": "inhibition at 12.5 ppm", "setting": "Pyricularia oryzae", "result": "70 to 90", "unit": "%"}, {"measurement": "inhibition at 1.6 ppm", "setting": "Botrytis cinerea; [11]", "result": "> 90", "unit": "%"}]}, {"smiles": "CC(Cc1ccc(OC(F)(F)F)cc1)CN(C)Cc1ccc(Cl)nc1", "note": "(stereo not drawn) [Compound I-12, 6-chloro-N-methyl-N-[3-(4-trifluoromethoxyphenyl)-2-methylpropyl]-3-pyridylmethylamine]", "values": [{"measurement": "inhibition at 100 ppm", "setting": "Septoria tritici; [4]", "result": "70 to 90", "unit": "%"}, {"measurement": "inhibition at 12.5 ppm", "setting": "Pyrenophora graminea; [5]", "result": "70 to 90", "unit": "%"}, {"measurement": "inhibition at 3.2 ppm", "setting": "Microdochium nivale; [6]", "result": "> 90", "unit": "%"}, {"measurement": "inhibition at 0.8 ppm", "setting": "Leptosphaeria nodorum; [7]", "result": "> 90", "unit": "%"}, {"measurement": "inhibition at 100 ppm", "setting": "Rhynchosporium secalis; [8]", "result": "> 90", "unit": "%"}, {"measurement": "pest or weed control at 100 µg/mL", "setting": "cucumber powdery mildew", "result": 100, "unit": "%"}, {"measurement": "pest or weed control at 125 µg/mL", "setting": "wheat powdery mildew [1]", "result": 100, "unit": "%"}, {"measurement": "Relative Mobility", "setting": "wheat powdery mildew [2]; [9]", "result": 10}, {"measurement": "inhibition at 25 ppm", "setting": "[3]; [10]", "result": "> 90", "unit": "%"}, {"measurement": "inhibition at 3.2 ppm", "setting": "Venturia inaequalis; [6]", "result": "70 to 90", "unit": "%"}, {"measurement": "inhibition at 12.5 ppm", "setting": "Pyricularia oryzae", "result": "70 to 90", "unit": "%"}, {"measurement": "inhibition at 1.6 ppm", "setting": "Botrytis cinerea; [11]", "result": "70 to 90", "unit": "%"}]}]}
